Laboratory results: patent US10981932B2, “Macrocyclic indole derivatives” (Bayer Aktiengesellschaft, priority 2016, dated 2021)
Where a name gives a salt, the structure may show the parent alone. Read-outs that look alike come from different tables or passages of the source.

How the values were obtained:
[1] = system: SUDHL10; experiment: Induction of cytotoxicity (CellTiter-Glo, 5 h), SUDHL10
[2] = system: SUDHL10; experiment: Anti-proliferative effect (CellTiter-Glo, 72 h), SUDHL10; format: cell-based; conditions: SUDHL10 cells, antiproliferation, median, read-out: Antiproli SUDHL10 [M] (median)
Description: Assessment of the Anti-Proliferative Effect of Compounds in Different Cell Lines
The impact of compounds on the proliferation of different cell lines was assessed using the CellTiter-Glo® Luminescent Cell Viability reagent from Promega (G7573). Of note, SUDHL10 and SUDHL5 (DLBCL), NCI-H929 (Multiple Myeloma), A2780 (ovarian carcinoma) as well as MV-4-11(AML) cells are sensitive to MCL-1 inhibition.
In parallel, cells were plated in a reference (day 0) plate for time zero determination.
Rim wells were excluded. The cells were incubated for 72 h hours in a humidified incubator at 37° C. The day 0 plate was measured by adding 30 μl/well of CTG solution (CellTiter-Glo® Luminescent Cell Viability reagent, Promega G7573) to time zero wells in the reference plate followed by a 10 minutes incubation and luminescence reading at 0.1 ms, using the PHERAstar FS microplate reader (BMG Labtech).
After 72 h incubation, the treated plates were measured in the same way as the day 0 plate mentioned above.

[3] = system: SUDHL5; experiment: Anti-proliferative effect (CellTiter-Glo, 72 h), SUDHL5; format: cell-based; conditions: SUDHL5 cells, antiproliferation, median, read-out: Antiproli SUDHL5 [M] (median)
Procedure, shortened: (§1)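 Endpoint: CellTiter-Glo luminescence, 10 min after reagent addition. Treatment ran 72 h at 37 °C, humidified. Growth was referenced to a separately plated day 0 plate.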

[4] = system: SUDHL5; experiment: Induction of caspase-3/7 activity (Caspase-Glo 3/7), SUDHL5; format: cell-based; conditions: caspase-3/7 induction, SUDHL5 cells, 3 h treatment, median
Procedure, shortened: (§2)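 A 3 h, 37 °C compound incubation precedes the Caspase-Glo 3/7 read. After subtracting medium-only signal, EC50s are fitted against the reference compound's maximal caspase induction.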

[5] = target: MCL-1 (Homo sapiens, UniProt Q07820); experiment: Protein-protein interaction assay MCL-1/Noxa BH3 peptide (MCL-1 assay), TR-FRET; format: binding; conditions: MBP-MCL-1 / Noxa BH3-derived peptide, median
MCL-1, sequence (Q07820 whole entry): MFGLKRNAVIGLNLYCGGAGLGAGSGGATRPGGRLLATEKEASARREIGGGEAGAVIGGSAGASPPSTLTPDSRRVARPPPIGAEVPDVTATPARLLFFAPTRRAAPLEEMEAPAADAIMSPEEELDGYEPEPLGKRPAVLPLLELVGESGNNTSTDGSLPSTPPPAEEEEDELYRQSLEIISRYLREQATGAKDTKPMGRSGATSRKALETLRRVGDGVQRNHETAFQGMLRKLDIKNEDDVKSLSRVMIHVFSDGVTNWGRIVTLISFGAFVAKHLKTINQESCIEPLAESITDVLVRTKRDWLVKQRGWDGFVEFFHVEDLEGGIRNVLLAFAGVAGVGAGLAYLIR
Procedure, shortened: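 Steady-state competition, MCL-1/Noxa BH3, TR-FRET readout; 1 nM MBP-MCL-1, 11-point dose series 0.1 nM–20 μM; overnight 4 °C equilibration; 4-parameter IC50.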

[6] = system: SUDHL5; experiment: Induction of cytotoxicity (CellTiter-Glo, 5 h), SUDHL5
[7] = system: A2780; experiment: Anti-proliferative effect (CellTiter-Glo, 72 h), A2780; format: cell-based; conditions: A2780 cells, median, read-out: IC50 antiproliferation assay A2780 [M] (median)
Procedure, shortened: as §1

[8] = system: SUDHL10; experiment: Induction of caspase-3/7 activity (Caspase-Glo 3/7), SUDHL10; format: cell-based; conditions: caspase-3/7 induction, SUDHL10 cells, 3 h treatment, median
Procedure, shortened: as §2

[9] = Homo sapiens, SU-DHL10, 5 h, read-out: Cytotox SUDHL10 [M] (median), SUDHL10 cells, cytotoxicity induction, CellTiter-Glo, 5 h, median
[10] = Homo sapiens, SU-DHL10, 72 h, 72 h
[11] = Homo sapiens, SU-DHL-5, 72 h, 72 h
[12] = Homo sapiens, SU-DHL-5, 5 h, read-out: Cytotox SUDHL5 [M] (median), SUDHL5 cells, cytotoxicity induction, CellTiter-Glo, 5 h, median
[13] = Homo sapiens, SU-DHL10, 5 h, read-out: Cytotox SUDHL10 [M] (median), SUDHL10 cells, cytotoxicity induction, CellTiter-Glo, 5 h incubation, median
[14] = Homo sapiens, SU-DHL10, 72 h, 72 h incubation
[15] = Homo sapiens, SU-DHL-5, 72 h, 72 h incubation
[16] = Homo sapiens, SU-DHL-5, 5 h, read-out: Cytotox SUDHL5 [M] (median), SUDHL5 cells, cytotoxicity induction, CellTiter-Glo, 5 h incubation, median
[17] = read-out: Cytotox SUDHL10 [M] (median), SUDHL10 cells, cytotoxicity induction, CellTiter-Glo, 5 h incubation, median
[18] = read-out: Cytotox SUDHL5 [M] (median), SUDHL5 cells, cytotoxicity induction, CellTiter-Glo, 5 h incubation, median

In the case of `Cn1nc(COCc2ccc(C(N)=O)cc2)c2c1COCCCCn1c(C(=O)O)c(CCCOc3cccc4ccccc34)c3cccc-2c31` (racemic) [Example 346, (rac)-3-{[(4-carbamoylbenzyl)oxy]methyl}-1-methyl-7-[3-(naphthalen-1-yloxy)propyl]-1,10,11,12,13,15-hexahydropyrazolo[4′,3′:9,10][1,6]oxazacycloundecino[8,7,6-hi]indole-8-carboxylic Acid], the IC50 [1, 9] is reported as over 3.3e-05 M, the IC50 [2, 10] is reported as 3.54e-06 M and the IC50 [3, 11] is reported as 9.09e-06 M. It also gave an EC50 ([4]; Homo sapiens, SU-DHL-5, 3 h) of 25.1 µM, an IC50 [5] of 0.0142 µM and an IC50 [6, 12] of 2.02e-05 M. For the same molecule, the IC50 ([7]; Homo sapiens, A2780, 72 h) was 2.32e-05 M and the EC50 ([8]; Homo sapiens, SU-DHL10, 3 h) was 32.4 µM.
In the case of `COCc1c2c(nn1C)COCCCCn1c(C(=O)O)c(CCCOc3cccc4ccccc34)c3cccc-2c31` (racemic) [Example 099, (rac)-3-(methoxymethyl)-2-methyl-7-[3-(naphthalen-1-yloxy)propyl]-2,10,11,12,13,15-hexahydropyrazolo[4′,3′:9,10][1,6]oxazacycloundecino[8,7,6-hi]indole-8-carboxylic Acid], the IC50 [1, 13] is reported as 1.75e-05 M, the IC50 [2, 14] is reported as 1.08e-05 M and the IC50 [3, 15] is reported as 8.47e-06 M. The EC50 ([4]; Homo sapiens, SU-DHL-5, 3 h) was 5.2 µM, the IC50 [5] was 0.0043 µM and the IC50 [6, 16] was 3.86e-06 M. For the same molecule, the IC50 ([7]; Homo sapiens, A2780, 72 h) was 2.11e-05 M and the EC50 ([8]; Homo sapiens, SU-DHL10, 3 h) was 12.8 µM.
For `Cn1nc(CN2CCCC2)c2c1COCCCCn1c(C(=O)O)c(CCCOc3cccc4ccccc34)c3cccc-2c31` (single isomer, unassigned; enantiomer 2) [Example 337, 1-methyl-7-[3-(naphthalen-1-yloxy)propyl]-3-(pyrrolidin-1-ylmethyl)-1,10,11,12,13,15-hexahydropyrazolo[4′3′:9,10][1,6]oxazacycloundecino[8,7,6-hi]indole-carboxylic Acid (Enantiomer 2)], the IC50 ([1]; read-out: Cytotox SUDHL10 [M] (median), SUDHL10 cells, cytotoxicity induction, CellTiter-Glo, 5 h, median) was over 3.3e-05 M, the IC50 ([2]; 72 h) was over 3.3e-05 M and the IC50 ([3]; 72 h) was 1.97e-05 M. For the same molecule, the EC50 [4] was over 33 µM, the IC50 [5] was 0.977 µM and the IC50 ([6]; read-out: Cytotox SUDHL5 [M] (median), SUDHL5 cells, cytotoxicity induction, CellTiter-Glo, 5 h, median) was over 3.3e-05 M. For the same molecule, the IC50 [7] was over 3.3e-05 M and the EC50 [8] was over 33 µM.
`Cc1nn(CC(F)(F)F)c2c1-c1cccc3c(CCCOc4cccc5ccccc45)c(C(=O)O)n(c13)C/C=C\COC2` (racemic) [Example 098, (rac)-(11Z)-3-methyl-7-[3-(naphthalen-1-yloxy)propyl]-12-(2,2,2-trifluoroethyl)-1,10,13,15-tetrahydropyrazolo[4′,3′:9,10][1,6]oxazacycloundecino[8,7,6-hi]indole-8-carboxylic Acid] was tested, and the IC50 [1, 13] was over 3.3e-05 M, the IC50 [2, 14] was 1.15e-05 M and the IC50 [3, 15] was 2.74e-05 M. For the same molecule, the EC50 ([4]; Homo sapiens, SU-DHL-5, 3 h) was over 33 µM, the IC50 [5] was 0.0827 µM and the IC50 [6, 16] was 2.94e-05 M. For the same molecule, the IC50 ([7]; Homo sapiens, A2780, 72 h) was 2.09e-05 M and the EC50 ([8]; Homo sapiens, SU-DHL10, 3 h) was over 33 µM.
`CCc1c2c(nn1C)CN(C)CCCn1c(C(=O)O)c(CCCOc3cccc4ccccc34)c3cccc-2c31` (single isomer, unassigned; enantiomer 1) [Example 142, 11-Ethyl-7,10-dimethyl-1-[3-(1-naphthyloxy)propyl]-4,5,6,7,8,10-hexahydropyrazolo[3′,4′:7,8][1,5]diazecino[9,10,1-hi]indole-2-carboxylic acid-N-ethylethanamine Salt (Enantiomer 1)] gave an IC50 [1, 17] of 1.34e-05 M, an IC50 [2, 14] of 1.89e-05 M and an IC50 [3, 15] of 8.25e-06 M. For the same molecule, the EC50 [4] was 4.73 µM, the IC50 [5] was 0.00523 µM and the IC50 [6, 18] was 6.07e-06 M. It also gave an IC50 ([7]; Homo sapiens, A2780, 72 h) of 2.25e-05 M and an EC50 [8] of 12.5 µM.
In the case of `Cn1nc(CN2CCCCC2=O)c2c1COCCCCn1c(C(=O)O)c(CCCOc3cccc4ccccc34)c3cccc-2c31` (racemic) [Example 325, (rac)-1-methyl-7-[3-(naphthalen-1-yloxy)propyl]-3-[(2-oxopiperidin-1-yl)methyl]-1,10,11,12,13,15-hexahydropyrazolo[4′,3′:9,10][1,6]oxazacycloundecino[8,7,6-hi]indole-8-carboxylic Acid], the IC50 [1, 9] is reported as over 3.3e-05 M, the IC50 [2, 10] is reported as 1.45e-05 M and the IC50 [3, 11] is reported as 2.13e-05 M. The EC50 ([4]; Homo sapiens, SU-DHL-5, 3 h) was over 33 µM, the IC50 [5] was 0.0802 µM and the IC50 [6, 12] was over 3.3e-05 M. The IC50 ([7]; Homo sapiens, A2780, 72 h) was over 3.3e-05 M and the EC50 ([8]; Homo sapiens, SU-DHL10, 3 h) was over 33 µM.
`Cn1nc(COC2CC2)c2c1COCCCCn1c(C(=O)O)c(CCCOc3cccc4ccccc34)c3cccc-2c31` (racemic) [Example 213, (rac)-3-[(cyclopropyloxy)methyl]-1-methyl-7-[3-(naphthalen-1-yloxy)propyl]-1,10,11,12,13,15-hexahydropyrazolo[4′3′:9,10][1,6]oxazacycloundecino[8,7,6,6-hi]indole-8-carboxylic Acid] gave an IC50 [1, 13] of over 3.3e-05 M, an IC50 [2, 14] of 5.12e-06 M and an IC50 [3, 15] of 2.49e-06 M. It also gave an EC50 ([4]; Homo sapiens, SU-DHL-5, 3 h) of over 33 µM, an IC50 [5] of 0.0134 µM and an IC50 [6, 16] of over 3.3e-05 M. The IC50 ([7]; Homo sapiens, A2780, 72 h) was 2.91e-05 M and the EC50 ([8]; Homo sapiens, SU-DHL10, 3 h) was over 33 µM.
`Cn1nc2c(c1C(F)(F)F)-c1cccc3c(CCCOc4cccc5ccccc45)c(C(=O)O)n(c13)CCCCOC2` (racemic) [Example 186, (rac)-2-methyl-7-[3-(naphthalen-1-yloxy)propyl]-3-(trifluoromethyl)-2,10,11,12,13,15-hexahydropyrazolo[4′3′:9,10][1,6]oxazacycloundecino[8,7,6,6-hi]indole-8-carboxylic Acid] was tested, and the IC50 [1, 13] was 2.61e-05 M, the IC50 [2, 14] was 1.4e-05 M and the IC50 [3, 15] was 8.69e-06 M. It also gave an EC50 ([4]; Homo sapiens, SU-DHL-5, 3 h) of 9.85 µM, an IC50 [5] of 0.0157 µM and an IC50 [6, 16] of 1.14e-05 M. For the same molecule, the IC50 [7] was 2.28e-05 M, the IC50 ([7]; Homo sapiens, A2780, 72 h) was over 3.3e-05 M and the EC50 ([8]; Homo sapiens, SU-DHL10, 3 h) was 18.6 µM.
In the case of `Cn1nc(CN2CCCC2)c2c1COCCCCn1c(C(=O)O)c(CCCOc3cccc4ccccc34)c3cccc-2c31` (single isomer, unassigned; enantiomer 1) [Example 336, 1-methyl-7-[3-(naphthalen-1-yloxy)propyl]-3-(pyrrolidin-1-ylmethyl)-1,10,11,12,13,15-hexahydropyrazolo[4′,3′:9,10][1,6]oxazacycloundecino[8,7,6-hi]indole-8-carboxylic Acid (Enantiomer 1)], the IC50 [1, 9] is reported as over 3.3e-05 M, the IC50 [2, 10] is reported as over 3.3e-05 M and the IC50 [3, 11] is reported as over 3.3e-05 M. The EC50 ([4]; Homo sapiens, SU-DHL-5, 3 h) was over 33 µM, the IC50 [5] was 0.132 µM and the IC50 [6, 12] was over 3.3e-05 M. It also gave an IC50 ([7]; Homo sapiens, A2780, 72 h) of over 3.3e-05 M and an EC50 ([8]; Homo sapiens, SU-DHL10, 3 h) of over 33 µM.
Work on `Cn1nc(CN2CCOCC2)c2c1COCC=CCn1c(C(=O)O)c(CCCOc3cccc4ccccc34)c3cccc-2c31` (single isomer, unassigned; enantiomer 2) [Example 134, (E)-1-methyl-3-(morpholin-4-ylmethyl)-7-[3-(naphthalen-1-yloxy)propyl]-1,13,15-tetrahydropyrazolo[4′,3′:9,10][1,6]oxazacycloundecino[8,7,6-hi]indole-8-carboxylic acid-N-ethylethanamine Salt (Enantiomer 2)] yielded an IC50 [1, 17] of over 3.3e-05 M, an IC50 ([2]; 72 h incubation) of 1.63e-05 M and an IC50 ([3]; 72 h incubation) of 2.14e-05 M. For the same molecule, the EC50 [4] was over 33 µM, the IC50 [5] was 0.322 µM and the IC50 [6, 18] was over 3.3e-05 M. It also gave an IC50 [7] of 2.07e-05 M and an EC50 [8] of over 33 µM.
